Measurements reported in US10724099B2, “Multiplex methods to assay mixed cell populations simultaneously” (The Broad Institute, Inc., priority 2012, dated 2020).

Key:
MARK3 = target: T1, MARK3 (Homo sapiens, UniProt P27448); test: DiscoveRx KinomeScan binding
T1 construct: purchased DiscoveRx scanEDGE panel (KinomeScan)

EGFR(L858R) = target: T2, EGFR(L858R) (Homo sapiens, UniProt P00533, L858R); test: DiscoveRx KinomeScan binding
T2 construct: purchased DiscoveRx scanEDGE panel

ULK2 = target: T3, ULK2 (Homo sapiens, UniProt Q8IYT8); test: DiscoveRx KinomeScan binding
T3 construct: purchased DiscoveRx scanEDGE panel

DYRK1B = target: T4, DYRK1B (Homo sapiens, UniProt Q9Y463); test: DiscoveRx KinomeScan binding
T4 construct: purchased DiscoveRx scanEDGE panel

AURKB = target: T5, AURKB (Homo sapiens, UniProt Q96GD4); test: DiscoveRx KinomeScan binding
T5 construct: purchased DiscoveRx (KINOMEscan scanEDGE panel)

ADCK3 = target: T6, ADCK3 (Homo sapiens, UniProt Q8NI60); test: DiscoveRx KinomeScan binding; settings: Entrez CABC1
T6 construct: purchased DiscoveRx (KINOMEscan scanEDGE panel)

CDK2 = target: T7, CDK2 (Homo sapiens, UniProt P24941); test: DiscoveRx KinomeScan binding
T7 construct: purchased DiscoveRx (KINOMEscan scanEDGE panel)

MAP3K4 = target: T8, MAP3K4 (Homo sapiens, UniProt Q9Y6R4); test: DiscoveRx KinomeScan binding
T8 construct: purchased DiscoveRx scanEDGE panel (KinomeScan)

PLK1 = target: T9, PLK1 (Homo sapiens, UniProt P53350); test: DiscoveRx KinomeScan binding
T9 construct: purchased DiscoveRx scanEDGE panel

PAK4 = target: T10, PAK4 (Homo sapiens, UniProt O96013); test: DiscoveRx KinomeScan binding
T10 construct: purchased DiscoveRx scanEDGE panel (KinomeScan)

IKK---beta = target: T11, IKK---beta (Homo sapiens, UniProt O14920); test: DiscoveRx KinomeScan binding; settings: Entrez IKBKB
T11 construct: purchased DiscoveRx scanEDGE panel

AKT2 = target: T12, AKT2 (Homo sapiens, UniProt P31751); test: DiscoveRx KinomeScan binding
T12 construct: purchased DiscoveRx (KINOMEscan scanEDGE panel)

ERBB4 = target: T13, ERBB4 (Homo sapiens, UniProt Q15303); test: DiscoveRx KinomeScan binding
T13 construct: purchased DiscoveRx scanEDGE panel

IGF1R = target: T14, IGF1R (Homo sapiens, UniProt P08069); test: DiscoveRx KinomeScan binding
T14 construct: purchased DiscoveRx scanEDGE panel

MEK2 = target: T15, MEK2 (Homo sapiens, UniProt P36507); test: DiscoveRx KinomeScan binding; settings: Entrez MAP2K2
T15 construct: purchased DiscoveRx scanEDGE panel (KinomeScan)

CSF1R = target: T16, CSF1R (Homo sapiens, UniProt P07333); test: DiscoveRx KinomeScan binding
T16 construct: purchased DiscoveRx scanEDGE panel

CSNK1G2 = target: T17, CSNK1G2 (Homo sapiens, UniProt P78368); test: DiscoveRx KinomeScan binding
T17 construct: purchased DiscoveRx scanEDGE panel

[1] = target: T18, TYK2(JH1domain---catalytic) (Homo sapiens, UniProt P29597); test: DiscoveRx KinomeScan binding
T18 construct: TYK2(JH1domain---catalytic); purchased DiscoveRx scanEDGE panel

MKNK1 = target: T19, MKNK1 (Homo sapiens, UniProt Q9BUB5); test: DiscoveRx KinomeScan binding
T19 construct: purchased DiscoveRx scanEDGE panel (KinomeScan)

KIT(D816V) = target: T20, KIT(D816V) (Homo sapiens, UniProt P10721, D816V); test: DiscoveRx KinomeScan binding
T20 construct: purchased DiscoveRx scanEDGE panel (KinomeScan)

PIK3C2B = target: T21, PIK3C2B (Homo sapiens, UniProt O00750); test: DiscoveRx KinomeScan binding
T21 construct: purchased DiscoveRx scanEDGE panel (KinomeScan)

PLK4 = target: T22, PLK4 (Homo sapiens, UniProt O00444); test: DiscoveRx KinomeScan binding
T22 construct: purchased DiscoveRx scanEDGE panel

CDK7 = target: T23, CDK7 (Homo sapiens, UniProt P50613); test: DiscoveRx KinomeScan binding
T23 construct: purchased DiscoveRx (KINOMEscan scanEDGE panel)

CDK9 = target: T24, CDK9 (Homo sapiens, UniProt P50750); test: DiscoveRx KinomeScan binding
T24 construct: purchased DiscoveRx scanEDGE panel

p38---alpha = target: T25, p38---alpha (Homo sapiens, UniProt Q16539); test: DiscoveRx KinomeScan binding; settings: Entrez MAPK14
T25 construct: purchased DiscoveRx scanEDGE panel (KinomeScan)

ABL1---phosphorylated = target: T26, ABL1---phosphorylated (Homo sapiens, UniProt P00519); test: DiscoveRx KinomeScan binding; settings: Entrez ABL1
T26 construct: purchased DiscoveRx (KINOMEscan scanEDGE panel)

EGFR = target: T27, EGFR (Homo sapiens, UniProt P00533); test: DiscoveRx KinomeScan binding
T27 construct: purchased DiscoveRx scanEDGE panel

ERK1 = target: T28, ERK1 (Homo sapiens, UniProt P27361); test: DiscoveRx KinomeScan binding; settings: Entrez MAPK3
T28 construct: purchased DiscoveRx scanEDGE panel

102 barcoded cell lines = test: PRISM, 102 barcoded cell lines in pools; format: cell-based; settings: 102 cell lines
Source text: PRISM was used to identify novel anticancer compounds, using a set of 102 barcoded cell lines including 90 non-small cell lung adenocarcinoma lines (and 2 duplicate lines with different barcode labels) and 10 remaining cell lines representing other tissues of origins.
Using the AUC for each cell line's response to BRD-7880, a PRISM “activity profile” was created to query whether the sensitivity pattern of BRD-7880 across the cell line panel was related to any of the tool compounds assayed in parallel. […] Thus it was hypothesized that BRD-7880 was functioning as an inhibitor of aurora kinases.

MLK1 = target: T29, MLK1 (Homo sapiens, UniProt P80192); test: DiscoveRx KinomeScan binding; settings: Entrez MAP3K9
T29 construct: purchased DiscoveRx scanEDGE panel (KinomeScan)

[2] = target: T30, ABL1(T315I)---phosphorylated (Homo sapiens, UniProt P00519, T315I); test: DiscoveRx KinomeScan binding; settings: Entrez ABL1
T30 construct: purchased DiscoveRx (KINOMEscan scanEDGE panel)

BRAF(V600E) = target: T31, BRAF(V600E) (Homo sapiens, UniProt P15056, V600E); test: DiscoveRx KinomeScan binding
T31 construct: purchased DiscoveRx (KINOMEscan scanEDGE panel)

AXL = target: T32, AXL (Homo sapiens, UniProt P30530); test: DiscoveRx KinomeScan binding
T32 construct: purchased DiscoveRx (KINOMEscan scanEDGE panel)

EPHA2 = target: T33, EPHA2 (Homo sapiens, UniProt P29317); test: DiscoveRx KinomeScan binding
T33 construct: purchased DiscoveRx scanEDGE panel

TGFBR1 = target: T34, TGFBR1 (Homo sapiens, UniProt P36897); test: DiscoveRx KinomeScan binding
T34 construct: purchased DiscoveRx scanEDGE panel

TSSK1B = target: T35, TSSK1B (Homo sapiens, UniProt Q9BXA7); test: DiscoveRx KinomeScan binding
T35 construct: purchased DiscoveRx scanEDGE panel

MEK1 = target: T36, MEK1 (Homo sapiens, UniProt Q02750); test: DiscoveRx KinomeScan binding; settings: Entrez MAP2K1
T36 construct: purchased DiscoveRx scanEDGE panel (KinomeScan)
T36 sequence (Q02750 whole entry): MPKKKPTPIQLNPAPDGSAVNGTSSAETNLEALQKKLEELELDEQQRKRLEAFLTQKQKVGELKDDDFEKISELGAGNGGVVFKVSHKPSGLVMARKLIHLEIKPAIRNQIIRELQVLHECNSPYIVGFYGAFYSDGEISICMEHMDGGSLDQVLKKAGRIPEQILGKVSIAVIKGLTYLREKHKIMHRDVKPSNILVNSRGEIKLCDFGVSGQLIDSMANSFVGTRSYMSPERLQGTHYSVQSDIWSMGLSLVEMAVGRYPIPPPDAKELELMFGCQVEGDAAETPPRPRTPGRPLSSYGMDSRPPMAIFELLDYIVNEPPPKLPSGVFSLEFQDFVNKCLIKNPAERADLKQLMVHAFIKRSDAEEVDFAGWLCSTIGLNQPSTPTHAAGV

T5 sequence (Q96GD4 whole entry): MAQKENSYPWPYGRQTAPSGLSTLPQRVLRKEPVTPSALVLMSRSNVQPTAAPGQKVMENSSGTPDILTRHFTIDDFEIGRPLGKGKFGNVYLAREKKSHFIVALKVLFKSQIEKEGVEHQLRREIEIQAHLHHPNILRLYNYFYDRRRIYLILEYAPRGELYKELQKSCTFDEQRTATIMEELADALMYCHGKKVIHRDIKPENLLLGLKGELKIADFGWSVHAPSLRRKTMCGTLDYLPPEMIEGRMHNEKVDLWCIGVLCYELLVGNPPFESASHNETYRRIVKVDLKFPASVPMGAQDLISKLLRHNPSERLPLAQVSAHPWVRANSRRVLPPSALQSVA
T16 sequence (P07333 20-972): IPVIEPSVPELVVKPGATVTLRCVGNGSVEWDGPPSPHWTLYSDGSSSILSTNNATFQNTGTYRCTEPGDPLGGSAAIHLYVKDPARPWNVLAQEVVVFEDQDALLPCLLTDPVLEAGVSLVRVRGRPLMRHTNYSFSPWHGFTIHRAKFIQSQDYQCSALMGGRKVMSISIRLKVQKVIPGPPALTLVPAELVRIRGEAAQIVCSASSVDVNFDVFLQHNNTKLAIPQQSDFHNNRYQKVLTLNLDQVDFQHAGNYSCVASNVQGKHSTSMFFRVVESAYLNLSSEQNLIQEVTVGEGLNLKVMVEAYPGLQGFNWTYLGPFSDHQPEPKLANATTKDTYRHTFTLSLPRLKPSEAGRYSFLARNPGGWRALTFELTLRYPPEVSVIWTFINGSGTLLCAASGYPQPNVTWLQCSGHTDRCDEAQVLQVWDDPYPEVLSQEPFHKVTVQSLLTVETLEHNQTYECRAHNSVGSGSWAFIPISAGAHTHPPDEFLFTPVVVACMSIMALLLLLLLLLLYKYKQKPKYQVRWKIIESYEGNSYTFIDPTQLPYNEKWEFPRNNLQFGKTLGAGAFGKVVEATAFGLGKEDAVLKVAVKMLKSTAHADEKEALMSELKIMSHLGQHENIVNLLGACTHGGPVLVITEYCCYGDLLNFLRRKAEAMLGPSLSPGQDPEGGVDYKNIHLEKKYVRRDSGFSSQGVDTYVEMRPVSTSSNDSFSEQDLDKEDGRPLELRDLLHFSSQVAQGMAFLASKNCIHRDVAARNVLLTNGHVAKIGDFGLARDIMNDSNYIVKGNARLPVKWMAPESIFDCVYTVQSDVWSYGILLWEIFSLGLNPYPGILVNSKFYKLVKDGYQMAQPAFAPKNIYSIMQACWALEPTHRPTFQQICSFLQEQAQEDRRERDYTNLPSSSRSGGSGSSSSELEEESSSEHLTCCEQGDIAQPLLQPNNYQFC
T22 sequence (O00444 whole entry): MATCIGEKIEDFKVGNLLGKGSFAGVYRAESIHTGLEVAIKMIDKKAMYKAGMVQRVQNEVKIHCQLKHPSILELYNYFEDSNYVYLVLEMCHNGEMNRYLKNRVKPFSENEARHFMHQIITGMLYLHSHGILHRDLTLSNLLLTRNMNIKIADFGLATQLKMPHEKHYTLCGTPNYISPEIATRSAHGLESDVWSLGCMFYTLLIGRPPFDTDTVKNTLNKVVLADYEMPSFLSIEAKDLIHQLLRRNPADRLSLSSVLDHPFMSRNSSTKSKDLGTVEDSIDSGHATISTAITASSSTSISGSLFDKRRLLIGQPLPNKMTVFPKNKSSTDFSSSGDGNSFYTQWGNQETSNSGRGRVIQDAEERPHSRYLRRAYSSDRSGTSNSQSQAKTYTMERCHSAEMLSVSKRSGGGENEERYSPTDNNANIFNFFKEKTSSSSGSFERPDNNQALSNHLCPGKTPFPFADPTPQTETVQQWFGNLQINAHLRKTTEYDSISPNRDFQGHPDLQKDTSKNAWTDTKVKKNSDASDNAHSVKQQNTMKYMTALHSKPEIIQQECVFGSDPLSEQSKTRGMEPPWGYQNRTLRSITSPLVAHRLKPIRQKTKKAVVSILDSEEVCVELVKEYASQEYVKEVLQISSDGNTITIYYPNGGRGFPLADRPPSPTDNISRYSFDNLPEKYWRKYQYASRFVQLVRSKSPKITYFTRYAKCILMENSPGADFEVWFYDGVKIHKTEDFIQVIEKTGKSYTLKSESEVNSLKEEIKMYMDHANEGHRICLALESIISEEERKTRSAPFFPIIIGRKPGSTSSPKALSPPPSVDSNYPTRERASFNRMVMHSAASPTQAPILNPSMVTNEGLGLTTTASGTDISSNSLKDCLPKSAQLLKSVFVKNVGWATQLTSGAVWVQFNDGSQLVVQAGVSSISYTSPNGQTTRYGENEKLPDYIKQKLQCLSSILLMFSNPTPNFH
T23 sequence (P50613 whole entry): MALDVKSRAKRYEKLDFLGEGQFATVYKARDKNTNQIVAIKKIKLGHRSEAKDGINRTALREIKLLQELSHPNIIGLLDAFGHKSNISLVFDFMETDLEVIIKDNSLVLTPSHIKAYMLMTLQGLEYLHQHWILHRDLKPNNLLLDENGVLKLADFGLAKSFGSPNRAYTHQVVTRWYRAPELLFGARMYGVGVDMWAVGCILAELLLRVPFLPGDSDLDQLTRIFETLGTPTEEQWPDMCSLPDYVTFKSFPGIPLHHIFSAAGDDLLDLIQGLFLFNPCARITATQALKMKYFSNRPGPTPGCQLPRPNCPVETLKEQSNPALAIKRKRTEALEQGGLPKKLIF
T12 sequence (P31751 whole entry): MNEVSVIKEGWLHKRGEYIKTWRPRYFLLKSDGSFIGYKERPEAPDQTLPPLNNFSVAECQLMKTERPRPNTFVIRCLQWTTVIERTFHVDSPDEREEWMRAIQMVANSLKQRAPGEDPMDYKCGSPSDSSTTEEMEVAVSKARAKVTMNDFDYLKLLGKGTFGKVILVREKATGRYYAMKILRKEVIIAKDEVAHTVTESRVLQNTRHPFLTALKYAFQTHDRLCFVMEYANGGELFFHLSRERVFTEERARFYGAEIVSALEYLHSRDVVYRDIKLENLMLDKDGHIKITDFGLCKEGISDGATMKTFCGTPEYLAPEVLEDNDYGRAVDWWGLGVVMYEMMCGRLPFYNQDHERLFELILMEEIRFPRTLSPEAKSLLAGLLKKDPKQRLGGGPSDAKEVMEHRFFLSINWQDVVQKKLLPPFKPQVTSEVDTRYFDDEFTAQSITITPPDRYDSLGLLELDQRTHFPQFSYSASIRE
T28 sequence (P27361 whole entry): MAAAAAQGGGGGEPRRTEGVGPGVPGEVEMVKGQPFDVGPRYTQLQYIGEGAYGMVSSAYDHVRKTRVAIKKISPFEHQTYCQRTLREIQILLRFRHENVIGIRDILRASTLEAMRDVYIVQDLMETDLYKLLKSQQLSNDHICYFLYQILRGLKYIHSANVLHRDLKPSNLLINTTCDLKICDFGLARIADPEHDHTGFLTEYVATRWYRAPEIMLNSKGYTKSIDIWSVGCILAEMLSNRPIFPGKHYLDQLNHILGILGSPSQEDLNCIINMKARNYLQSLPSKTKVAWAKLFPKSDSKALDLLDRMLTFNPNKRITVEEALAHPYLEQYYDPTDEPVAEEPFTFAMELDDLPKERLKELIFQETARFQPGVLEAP
T19 sequence (Q9BUB5 whole entry): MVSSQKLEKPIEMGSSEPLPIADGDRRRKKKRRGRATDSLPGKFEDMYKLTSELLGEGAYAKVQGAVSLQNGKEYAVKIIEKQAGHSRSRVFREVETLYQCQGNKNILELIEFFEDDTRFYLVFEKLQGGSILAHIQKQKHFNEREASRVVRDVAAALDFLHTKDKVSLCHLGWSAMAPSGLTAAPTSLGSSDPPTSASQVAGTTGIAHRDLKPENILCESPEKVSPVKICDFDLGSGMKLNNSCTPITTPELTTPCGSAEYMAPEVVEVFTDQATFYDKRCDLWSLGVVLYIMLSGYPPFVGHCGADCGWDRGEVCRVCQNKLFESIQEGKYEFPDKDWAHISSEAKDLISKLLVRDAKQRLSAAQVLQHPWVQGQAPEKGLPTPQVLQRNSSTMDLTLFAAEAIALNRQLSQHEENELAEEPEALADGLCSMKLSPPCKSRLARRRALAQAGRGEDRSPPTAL
T35 sequence (Q9BXA7 whole entry): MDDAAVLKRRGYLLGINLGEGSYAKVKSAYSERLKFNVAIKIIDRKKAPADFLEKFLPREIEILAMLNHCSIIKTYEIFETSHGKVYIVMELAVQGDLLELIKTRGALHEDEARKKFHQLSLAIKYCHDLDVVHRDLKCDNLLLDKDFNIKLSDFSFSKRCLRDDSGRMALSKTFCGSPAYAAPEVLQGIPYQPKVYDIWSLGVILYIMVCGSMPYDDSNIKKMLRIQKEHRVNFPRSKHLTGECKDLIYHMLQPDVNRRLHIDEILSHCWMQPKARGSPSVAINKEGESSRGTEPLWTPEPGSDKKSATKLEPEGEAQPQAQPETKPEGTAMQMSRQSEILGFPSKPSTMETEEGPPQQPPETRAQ
T18 sequence (P29597 897-1176 limits assumed): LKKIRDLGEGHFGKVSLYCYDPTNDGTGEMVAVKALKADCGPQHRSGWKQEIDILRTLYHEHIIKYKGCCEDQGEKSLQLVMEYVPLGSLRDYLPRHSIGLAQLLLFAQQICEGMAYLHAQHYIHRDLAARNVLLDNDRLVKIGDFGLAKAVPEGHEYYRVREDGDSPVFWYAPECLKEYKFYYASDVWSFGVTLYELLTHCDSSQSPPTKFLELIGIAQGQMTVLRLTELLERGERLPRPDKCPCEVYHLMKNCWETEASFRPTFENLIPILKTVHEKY

SMILES: COc1ccc(NC(=O)Nc2ccc3c(c2)C(=O)N([C@@H](C)CO)C[C@H](C)[C@H](CN(C)Cc2ccc4c(c2)OCO4)O3)cc1 [BRD-7880]
- Percent Control (MARK3): 100%
- Percent Control (EGFR(L858R)): 60%
- Percent Control (ULK2): 100%
- Percent Control (DYRK1B): 55%
- binding to aurora kinase B (AURKB): 0.5 % of control
- Percent Control (AURKB; AURKB): 0.5%
- Percent Control (ADCK3): 84%
- Percent Control (CDK2): 100%
- Percent Control (MAP3K4): 86%
- Percent Control (PLK1): 39%
- Percent Control (PAK4): 100%
- Percent Control (IKK---beta): 68%
- Percent Control (AKT2): 80%
- Percent Control (ERBB4): 97%
- Percent Control (IGF1R): 88%
- Percent Control (MEK2): 73%
- Percent Control (CSF1R): 100%
- Percent Control (CSNK1G2): 100%
- Percent Control [1]: 87%
- Percent Control (MKNK1): 87%
- Percent Control (KIT(D816V)): 72%
- Percent Control (PIK3C2B): 96%
- Percent Control (PLK4): 61%
- Percent Control (CDK7): 77%
- Percent Control (CDK9): 90%
- Percent Control (p38---alpha): 93%
- Percent Control (ABL1---phosphorylated): 88%
- Percent Control (EGFR): 66%
- Percent Control (ERK1): 92%
- cell lines with AUC<0.5 (selectivity) (102 barcoded cell lines; 8 doses 0.25-32 μM): 12 of 102
- EC50 (102 barcoded cell lines): ~1 µM
- Percent Control (MLK1): 91%
- Percent Control [2]: 44%
- Percent Control (BRAF(V600E)): 65%
- Percent Control (AXL): 84%
- Percent Control (EPHA2): 86%
- Percent Control (TGFBR1): 100%
- Percent Control (TSSK1B): 57%
- Percent Control (MEK1): 71%
